The results in this text go back to ChEMBL document CHEMBL1201862, “PubChem BioAssay data set” (2004).

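Growth conditions: 96-well plates. Treatment: test compound, 48 hours, 5 concentrations. Analysis: linear interpolation between bracketing concentrations; unreached endpoints set to highest concentration. GI50: concentration for 50% inhibition of growth.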 Activity calls are given as the source filed them. Cut-off read from the data, not from the text of the source: active = GI50 up to about 1.1 µM and inactive = higher.

What all share (assay): growth of human tumour cells (NCI), 48 h
The test system of assay [1] is T47D.
The test system of assay [2] is DMS-273.
The subject of assay [3] is XF498.
The subject of assay [4] is NCI-H460.
The test system of assay [5] is KM-20L2.

Consider `COc1cc(C2S/C(=C/c3ccccc3)C(=O)N2c2ccc(NC(C)=O)cc2)cc(OC)c1OC` (stereo not given), for which the GI50 in assay [1] was 11.6 µM (inactive).

On to `S=P1(Sc2ccccc2)Oc2ccc3ccccc3c2-c2c(ccc3ccccc23)O1`, for which the GI50 is > 100 µM (inactive) in assay [2], > 100 µM (inactive) in assay [3], > 100 µM (inactive) in assay [4] and 67.1 µM (inactive) in assay [5].
